# Source: patent US20250002473A1, “QUINOXALINE DERIVED SULFONAMIDES WITH EGFR DEGRADATION ACTIVITIES AND THEIR USES THEREOF” (Accutar Biotechnology Inc., priority 2023, published 2025)
# Like-named read-outs stand apart in the source and are kept apart here.
# How the values were obtained:
# Assay type in all cases: cell-based
# A431 (EGFR_WT) = biological target: T1, A431 (EGFR_WT) (Homo sapiens, UniProt P00533); test: EGFR degradation assay (western blot), A431 cells
# T1 construct: endogenous in cells; host or cells: A431, NCI-H2073, NCI-H292
# Summary of the method: (§1)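 Cells seeded overnight, then exposed to compounds for 24 h; lysates run on western blot, EGFR probed with tubulin loading control and fluorescent secondary detection. DC50 = concentration giving 50% EGFR degradation.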
# [1] = tested on: BaF3_DTC (EGFR_Exon19del/T790M/C797S); test: EGFR degradation assay (western blot), BaF3_DTC cells
# Summary of the method: as §1
# [2] = biological target: T2, BaF3_SVD (EGFR_D770insSVD) (Homo sapiens, UniProt P00533, INS770SVD); test: EGFR degradation assay (western blot), BaF3_SVD cells
# T2 construct: expressed in transfected cells; host or cells: Ba/F3 (engineered)
# Procedure: (§2) A431 (EGFR_WT), NCl-H2073 (EGFR_WT), NCl-H292 (EGFR_WT), BaF3_YVAM (Her2_A775insYVAM), BaF3_SVD (EGFR_D770insSVD), BaF3_ASV (EGFR_A776inASV), or BaF3_DTC (EGFR_Exon19del/T790M/C797S) cells were seeded in a 24-well plate at a density of 4×10^5 cells per well for EGFR WT cells and 8× cells per well for EGFR or Her2 mutant cells, and the plates were incubated overnight. The cells were treated with the desired compounds for 24 h. The culture medium was removed, and 100 μL of RIPA buffer (Beyotime, P0013B) containing 1% Protease Inhibitor Cocktail (Bimake, B14001), 1% Phosphatase Inhibitor Cocktail 2 (Sigma, P5726), and 1% Phosphatase Inhibitor Cocktail 3 (Sigma, P0044) were added to lyse the cells. Then, the cell lysates were transferred to 1.5 mL microcentrifuge tubes and centrifuged at 12,000 rpm and 4° C. for 30 min. The supernatants were transferred into new tubes, and the protein concentration was determined using the BCA protein quantification method. All samples were diluted to the same concentration using RIPA buffer, loading buffer was added, samples were denatured, and 15 μg of protein per lane was loaded onto a SurePAGE 4-20% Bis-Tris gel. Samples were separated via electrophoresis in MOPS running buffer at 180 V for 100 min. Then, proteins were transferred onto PVDF membranes using the MiniBlot™ Electrophoretic Transfer Cell Device (Beyotime, E6050). The membrane was blocked using block buffer (LI-COR 927-60001) to prevent non-specific binding. The membrane was incubated with primary antibodies (1:500 dilution, EGFR-CST4405, 1:2000 dilution, Tubulin-ABclonal #AC021) at 4° C. overnight. The membrane was washed three times with 1× TBST buffer for 15 min each. The membrane was incubated with secondary antibodies IRDye 680RD Goat anti-Rabbit IgG Secondary Antibody (1:2000 dilution, LI-COR 926-68071) and IRDye 800CW Goat anti-Mouse IgG Secondary Antibody (1:2000 dilution, LI-COR 926-32210). […] Fluorescence was detected using the Odyssey CLx Imaging System, and the data were analyzed with Empiria Studio Software and GraphPad Prism 9. […]
# [3] = biological target: T3, BaF3_YVAM (Her2_A775insYVAM) (Homo sapiens, UniProt P04626, INS775YVMA); test: EGFR degradation assay (western blot), BaF3_YVAM cells
# T3 construct: expressed in transfected cells; host or cells: Ba/F3 (engineered)
# Procedure: as §2
# NCl-H2073 (EGFR_WT) = biological target: T4, NCl-H2073 (EGFR_WT) (Homo sapiens, UniProt P00533); test: EGFR degradation assay (western blot), NCl-H2073 cells; details: Table 5; NCI-H2073 cells (EGFR_WT), 24 h
# T4 construct: endogenous in cells; host or cells: A431, NCI-H2073, NCI-H292
# Procedure: as §2, with “min.” for “min. Then, proteins were transferred onto PVDF membranes using the MiniBlot™ Electrophoretic Transfer Cell Device (Beyotime, E6050). The membrane was blocked using block buffer (LI-COR 927-60001) to prevent non-specific binding. The membrane was incubated with primary antibodies (1:500 dilution, EGFR-CST4405, 1:2000 dilution, Tubulin-ABclonal #AC021) at 4° C. overnight. The membrane was washed three times with 1× TBST buffer for 15 min each. The membrane was incubated with secondary antibodies IRDye 680RD Goat anti-Rabbit IgG Secondary Antibody (1:2000 dilution, LI-COR 926-68071) and IRDye 800CW Goat anti-Mouse IgG Secondary Antibody (1:2000 dilution, LI-COR 926-32210).”
# NCl-H292 (EGFR_WT) = biological target: T5, NCl-H292 (EGFR_WT) (Homo sapiens, UniProt P00533); test: EGFR degradation assay (western blot), NCl-H292 cells; details: Table 5; NCI-H292 cells (EGFR_WT), 24 h
# T5 construct: endogenous in cells; host or cells: A431, NCI-H2073, NCI-H292
# Procedure: as §2, with “min.” for “min. Then, proteins were transferred onto PVDF membranes using the MiniBlot™ Electrophoretic Transfer Cell Device (Beyotime, E6050). The membrane was blocked using block buffer (LI-COR 927-60001) to prevent non-specific binding. The membrane was incubated with primary antibodies (1:500 dilution, EGFR-CST4405, 1:2000 dilution, Tubulin-ABclonal #AC021) at 4° C. overnight. The membrane was washed three times with 1× TBST buffer for 15 min each. The membrane was incubated with secondary antibodies IRDye 680RD Goat anti-Rabbit IgG Secondary Antibody (1:2000 dilution, LI-COR 926-68071) and IRDye 800CW Goat anti-Mouse IgG Secondary Antibody (1:2000 dilution, LI-COR 926-32210).”
# BaF3_DTC = test: Cell growth inhibition assay (CellTiter-Glo), BaF3_DTC
# BaF3_ASV = test: Cell growth inhibition assay (CellTiter-Glo), BaF3_ASV; details: for GI50: BaF3_ASV cells
# BaF3_YVMA = test: Cell growth inhibition assay (CellTiter-Glo), BaF3_YVMA
# Procedure: (§3) Cells were seeded in a 96-well plate (Corning 3610) with 90 μL of culture medium per well, and plates were incubated at 37° C. overnight. A 1,000× DMSO stock solution of the desired compound was prepared the following day. A compound dilution plate was prepared by diluting the stock solution 1:100 in the corresponding cell culture medium, 10 μL of the diluted compound solution was added to each 96-well plate well containing the seeded cells. […] The content of the wells was mixed by shaking continuously for 10 min, and luminescence was measured using Envision (PerkinElmer). The data were analyzed with GraphPad Prism 9 (see FIG. 50).
# (§4) Table 6, Table 7, and Table 8 list the cell growth inhibition results, where Gls0 represents the compound concentration to cause 50% cell growth inhibition in comparison with DMSO.
# NCI-H292 = test: Cell growth inhibition assay (CellTiter-Glo), NCI-H292; details: Homo sapiens; Table 7; NCI-H292 cells; head prints 24 h
# Procedure: as §3, §4
# [4] = BaF3_YVMA, comparison with Compound A, in words
# T1 sequence (P00533 25-1210): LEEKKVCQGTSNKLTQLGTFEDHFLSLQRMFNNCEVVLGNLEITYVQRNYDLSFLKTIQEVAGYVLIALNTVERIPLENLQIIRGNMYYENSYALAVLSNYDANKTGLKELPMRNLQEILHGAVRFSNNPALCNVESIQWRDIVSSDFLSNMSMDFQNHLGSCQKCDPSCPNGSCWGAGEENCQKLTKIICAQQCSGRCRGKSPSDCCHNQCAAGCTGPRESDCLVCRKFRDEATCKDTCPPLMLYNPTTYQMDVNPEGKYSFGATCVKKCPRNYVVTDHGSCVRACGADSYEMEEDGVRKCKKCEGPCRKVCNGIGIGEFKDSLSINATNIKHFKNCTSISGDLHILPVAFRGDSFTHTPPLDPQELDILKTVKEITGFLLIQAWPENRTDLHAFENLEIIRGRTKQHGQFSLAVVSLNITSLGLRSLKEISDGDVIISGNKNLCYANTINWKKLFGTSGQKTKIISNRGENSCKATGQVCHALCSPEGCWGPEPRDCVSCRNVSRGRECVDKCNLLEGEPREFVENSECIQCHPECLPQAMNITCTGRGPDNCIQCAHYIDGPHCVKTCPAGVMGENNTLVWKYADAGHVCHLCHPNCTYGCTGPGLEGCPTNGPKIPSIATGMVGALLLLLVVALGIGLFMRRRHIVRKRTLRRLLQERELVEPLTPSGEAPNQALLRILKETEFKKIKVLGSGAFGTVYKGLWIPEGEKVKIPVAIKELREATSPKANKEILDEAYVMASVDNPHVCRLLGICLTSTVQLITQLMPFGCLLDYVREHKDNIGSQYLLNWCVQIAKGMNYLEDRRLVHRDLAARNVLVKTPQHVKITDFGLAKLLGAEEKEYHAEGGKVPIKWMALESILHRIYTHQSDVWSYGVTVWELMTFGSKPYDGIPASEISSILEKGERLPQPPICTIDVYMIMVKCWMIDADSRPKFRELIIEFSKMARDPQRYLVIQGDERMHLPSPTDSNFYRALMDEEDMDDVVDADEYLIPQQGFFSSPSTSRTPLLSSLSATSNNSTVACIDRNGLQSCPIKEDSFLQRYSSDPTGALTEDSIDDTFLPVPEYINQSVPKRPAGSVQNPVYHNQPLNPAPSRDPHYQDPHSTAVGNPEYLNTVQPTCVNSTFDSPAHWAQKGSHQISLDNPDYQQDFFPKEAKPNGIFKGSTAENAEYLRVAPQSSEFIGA
# T3 sequence (P04626 with tags, fused parts or gaps INS775YVMA): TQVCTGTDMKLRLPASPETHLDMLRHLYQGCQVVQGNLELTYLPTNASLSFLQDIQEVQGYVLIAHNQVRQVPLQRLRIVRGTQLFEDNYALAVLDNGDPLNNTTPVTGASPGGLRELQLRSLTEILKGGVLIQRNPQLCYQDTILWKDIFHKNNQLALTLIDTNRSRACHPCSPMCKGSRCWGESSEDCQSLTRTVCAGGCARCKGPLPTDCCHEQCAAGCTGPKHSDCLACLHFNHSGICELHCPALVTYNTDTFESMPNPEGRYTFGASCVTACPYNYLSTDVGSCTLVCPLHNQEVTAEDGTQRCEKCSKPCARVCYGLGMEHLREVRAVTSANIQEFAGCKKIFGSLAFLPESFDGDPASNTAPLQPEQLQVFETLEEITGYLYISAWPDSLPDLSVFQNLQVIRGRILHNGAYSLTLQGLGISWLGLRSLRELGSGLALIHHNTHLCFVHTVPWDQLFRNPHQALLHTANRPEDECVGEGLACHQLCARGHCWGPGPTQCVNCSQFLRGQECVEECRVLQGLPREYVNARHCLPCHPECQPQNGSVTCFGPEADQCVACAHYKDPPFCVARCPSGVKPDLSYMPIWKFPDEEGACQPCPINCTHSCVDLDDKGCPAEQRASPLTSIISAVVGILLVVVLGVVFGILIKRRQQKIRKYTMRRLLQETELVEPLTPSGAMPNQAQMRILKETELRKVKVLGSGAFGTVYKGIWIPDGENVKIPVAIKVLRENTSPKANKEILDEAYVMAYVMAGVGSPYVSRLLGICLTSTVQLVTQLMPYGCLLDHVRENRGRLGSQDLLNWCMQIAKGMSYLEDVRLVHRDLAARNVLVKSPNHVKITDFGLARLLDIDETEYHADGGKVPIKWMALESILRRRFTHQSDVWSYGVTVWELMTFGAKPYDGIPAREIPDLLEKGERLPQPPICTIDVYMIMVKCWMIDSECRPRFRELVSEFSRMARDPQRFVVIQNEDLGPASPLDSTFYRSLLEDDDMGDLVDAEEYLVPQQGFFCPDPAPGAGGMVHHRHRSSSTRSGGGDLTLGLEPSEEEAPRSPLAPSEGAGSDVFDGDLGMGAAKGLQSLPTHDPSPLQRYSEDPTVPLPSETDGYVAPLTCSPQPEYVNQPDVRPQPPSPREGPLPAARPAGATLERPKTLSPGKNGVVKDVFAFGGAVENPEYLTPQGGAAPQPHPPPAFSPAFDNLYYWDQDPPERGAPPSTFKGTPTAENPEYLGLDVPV
# T2 sequence (P00533 with tags, fused parts or gaps INS770SVD): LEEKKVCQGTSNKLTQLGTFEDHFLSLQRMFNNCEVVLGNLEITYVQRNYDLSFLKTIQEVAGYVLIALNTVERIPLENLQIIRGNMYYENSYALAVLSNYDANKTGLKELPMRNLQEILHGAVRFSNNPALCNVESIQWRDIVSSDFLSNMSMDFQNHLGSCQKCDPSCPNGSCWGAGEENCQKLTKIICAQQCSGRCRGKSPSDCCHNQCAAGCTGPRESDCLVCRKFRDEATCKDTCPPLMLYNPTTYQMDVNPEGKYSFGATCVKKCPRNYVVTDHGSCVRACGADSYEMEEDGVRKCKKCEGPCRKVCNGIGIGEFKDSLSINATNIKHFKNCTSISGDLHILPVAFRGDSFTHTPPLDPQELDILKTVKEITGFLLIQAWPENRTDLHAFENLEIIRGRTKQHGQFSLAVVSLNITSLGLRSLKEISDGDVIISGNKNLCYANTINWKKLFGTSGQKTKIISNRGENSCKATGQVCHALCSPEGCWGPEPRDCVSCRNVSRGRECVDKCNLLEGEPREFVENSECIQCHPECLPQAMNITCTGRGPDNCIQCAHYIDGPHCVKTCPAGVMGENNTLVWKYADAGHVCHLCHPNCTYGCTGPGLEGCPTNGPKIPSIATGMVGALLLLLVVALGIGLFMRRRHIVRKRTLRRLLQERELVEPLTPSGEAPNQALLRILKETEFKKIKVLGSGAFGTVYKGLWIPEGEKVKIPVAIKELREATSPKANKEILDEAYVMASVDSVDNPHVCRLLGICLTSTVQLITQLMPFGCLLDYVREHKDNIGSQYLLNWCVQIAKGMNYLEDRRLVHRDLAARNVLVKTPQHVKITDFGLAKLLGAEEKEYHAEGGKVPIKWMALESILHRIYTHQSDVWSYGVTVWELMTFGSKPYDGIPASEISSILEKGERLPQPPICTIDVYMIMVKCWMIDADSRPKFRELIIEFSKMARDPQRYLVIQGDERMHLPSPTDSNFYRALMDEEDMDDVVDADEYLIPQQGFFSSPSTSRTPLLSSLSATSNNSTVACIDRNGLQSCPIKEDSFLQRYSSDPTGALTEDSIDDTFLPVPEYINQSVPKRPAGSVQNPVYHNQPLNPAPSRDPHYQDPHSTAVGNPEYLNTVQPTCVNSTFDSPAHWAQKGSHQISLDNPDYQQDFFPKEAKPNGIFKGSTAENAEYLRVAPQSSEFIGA
# T4 sequence (P00533 25-1210): as the sequence (P00533 25-1210) above
smiles,measurement,setting,value
"CCc1cc(Nc2ncc(Br)c(Nc3ccc4nccnc4c3NS(C)(=O)=O)n2)c(OC)cc1N1CCC(N2CCN(CCc3cccc4c3n(CC)c(=O)n4C3CCC(=O)NC3=O)CC2)CC1 (stereo not drawn) [Compound 11, N-(6-((5-bromo-2-((4-(4-(4-(2-(1-(2,6-dioxopiperidin-3-yl)-3-ethyl-2-oxo-2,3-dihydro-1H-benzo[d]imidazol-4-yl)ethyl)piperazin-1-yl)piperidin-1-yl)-5-ethyl-2-methoxyphenyl)amino)pyrimidin-4-yl)amino)quinoxalin-5-yl)methanesulfonamide]",DC50,"A431 (EGFR_WT); Table 5, 24 h, read-out: DC50 (nM), 24 h, A431",> 1000 nM
same,DC50,"A431 (EGFR_WT); compounds 24 h, western blot, read-out: A431 DC50",> 1000 nM
same,DC50,"[1]; BaF3_DTC cells (EGFR_Exon19del/T790M/C797S), compounds 24 h, western blot, read-out: BaF3_DTC DC50",1.2 nM
same,DC50,"[1]; Table 5, BaF3_Del19/T790M/C797S cells, 24 h, read-out: DC50 (nM), 24 h, BaF3_Del19/T790M/C797S",1.2 nM
same,Potency in degrading EGFR exon20 insertion mutant form compared with Compound A (BaF3_SVD),"[2]; BaF3_SVD, comparison with Compound A, in words",significantly increased potency
same,DC50,"[2]; Table 5, BaF3_SVD cells, 24 h",21.6 nM
same,Potency in degrading Her2 mutant form compared with Compound A (BaF3_YVMA),[3]; [4],significantly increased potency
same,DC50,"[3]; Table 5, BaF3_YVMA cells (mutant Her2), 24 h",33.3 nM
same,DC50,NCl-H2073 (EGFR_WT),> 1000 nM
same,DC50,NCl-H292 (EGFR_WT),> 1000 nM
same,GI50,"BaF3_DTC; 72 h, Table 6, BaF3_DTC cells, three days, CellTiter-Glo, read-out: BaF3_DTC GI50",6.37 nM
same,GI50,"BaF3_DTC; Table 7, BaF3_Del19/T790M/C797S cells, head prints 24 h, read-out: GI50 (nM), 24 h, BaF3_Del19/T790M/C797S",6.37 nM
same,GI50,"BaF3_ASV; 72 h, Table 6, three days, CellTiter-Glo, read-out: BaF3_ASV GI50",75.2 nM
same,Potency in cell growth inhibition compared with Compound A (BaF3_ASV),"BaF3_ASV; BaF3_ASV, comparison with Compound A, in words",significantly increased potency
same,GI50,"BaF3_ASV; Table 7, head prints 24 h, read-out: GI50 (nM), 24 h, BaF3_ASV",75.2 nM
same,Potency in cell growth inhibition compared with Compound A (BaF3_YVMA),BaF3_YVMA; [4],significantly increased potency
same,GI50,"BaF3_YVMA; Table 7, BaF3_YVMA cells, head prints 24 h",188 nM
same,GI50,NCI-H292,436 nM
